The text below walks through data of patent publication US11608319B2, “Beta-amino acid derivative, kinase inhibitor and pharmaceutical composition containing the same, and method for performing an in vivo related application that benefits from the inhibition of a kinase” (Industrial Technology Research Institute, priority 2019, dated 2023).

pIC50: −log10 of the molar value. Structures can show the parent of a compound that is named as a salt. Where two headings read alike, the source gives them in different places.

The target of test [1] is MYLK4 (Homo sapiens (Human), UniProt Q86YV6). The test can be described thus: Assay for inhibitory effect on MYLK-4, LanthaScreen Eu Kinase Binding Assay. A general note: TR-FRET usually uses a lanthanide donor and a delayed reading to cut background.
Chain of MYLK4 (Q86YV6 whole entry): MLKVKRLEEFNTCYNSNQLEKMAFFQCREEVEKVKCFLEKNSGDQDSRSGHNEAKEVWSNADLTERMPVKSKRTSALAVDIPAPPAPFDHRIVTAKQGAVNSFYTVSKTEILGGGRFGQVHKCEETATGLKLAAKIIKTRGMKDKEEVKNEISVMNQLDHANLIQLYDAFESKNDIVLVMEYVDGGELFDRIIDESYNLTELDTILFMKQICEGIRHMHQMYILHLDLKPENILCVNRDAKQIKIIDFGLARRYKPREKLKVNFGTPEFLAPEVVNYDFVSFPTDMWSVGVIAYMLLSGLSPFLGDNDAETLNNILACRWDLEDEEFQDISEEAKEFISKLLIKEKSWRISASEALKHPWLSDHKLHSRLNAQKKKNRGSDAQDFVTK
Test [2] concerns the target ROCK1 (Homo sapiens (Human), UniProt Q13464). The test can be described thus: biochemical.
The target in test [3] is YSK4 (Homo sapiens (Human), UniProt Q56UN5). Briefly: Assay for inhibitory effect on YSK-4, Z'-LYTE kinase assay. It counts as biochemical. The conditions noted are these: ATP 5 μM. The method, then: C. Assay for Inhibitory Effect on YSK-4
Chain of YSK4 (Q56UN5 whole entry): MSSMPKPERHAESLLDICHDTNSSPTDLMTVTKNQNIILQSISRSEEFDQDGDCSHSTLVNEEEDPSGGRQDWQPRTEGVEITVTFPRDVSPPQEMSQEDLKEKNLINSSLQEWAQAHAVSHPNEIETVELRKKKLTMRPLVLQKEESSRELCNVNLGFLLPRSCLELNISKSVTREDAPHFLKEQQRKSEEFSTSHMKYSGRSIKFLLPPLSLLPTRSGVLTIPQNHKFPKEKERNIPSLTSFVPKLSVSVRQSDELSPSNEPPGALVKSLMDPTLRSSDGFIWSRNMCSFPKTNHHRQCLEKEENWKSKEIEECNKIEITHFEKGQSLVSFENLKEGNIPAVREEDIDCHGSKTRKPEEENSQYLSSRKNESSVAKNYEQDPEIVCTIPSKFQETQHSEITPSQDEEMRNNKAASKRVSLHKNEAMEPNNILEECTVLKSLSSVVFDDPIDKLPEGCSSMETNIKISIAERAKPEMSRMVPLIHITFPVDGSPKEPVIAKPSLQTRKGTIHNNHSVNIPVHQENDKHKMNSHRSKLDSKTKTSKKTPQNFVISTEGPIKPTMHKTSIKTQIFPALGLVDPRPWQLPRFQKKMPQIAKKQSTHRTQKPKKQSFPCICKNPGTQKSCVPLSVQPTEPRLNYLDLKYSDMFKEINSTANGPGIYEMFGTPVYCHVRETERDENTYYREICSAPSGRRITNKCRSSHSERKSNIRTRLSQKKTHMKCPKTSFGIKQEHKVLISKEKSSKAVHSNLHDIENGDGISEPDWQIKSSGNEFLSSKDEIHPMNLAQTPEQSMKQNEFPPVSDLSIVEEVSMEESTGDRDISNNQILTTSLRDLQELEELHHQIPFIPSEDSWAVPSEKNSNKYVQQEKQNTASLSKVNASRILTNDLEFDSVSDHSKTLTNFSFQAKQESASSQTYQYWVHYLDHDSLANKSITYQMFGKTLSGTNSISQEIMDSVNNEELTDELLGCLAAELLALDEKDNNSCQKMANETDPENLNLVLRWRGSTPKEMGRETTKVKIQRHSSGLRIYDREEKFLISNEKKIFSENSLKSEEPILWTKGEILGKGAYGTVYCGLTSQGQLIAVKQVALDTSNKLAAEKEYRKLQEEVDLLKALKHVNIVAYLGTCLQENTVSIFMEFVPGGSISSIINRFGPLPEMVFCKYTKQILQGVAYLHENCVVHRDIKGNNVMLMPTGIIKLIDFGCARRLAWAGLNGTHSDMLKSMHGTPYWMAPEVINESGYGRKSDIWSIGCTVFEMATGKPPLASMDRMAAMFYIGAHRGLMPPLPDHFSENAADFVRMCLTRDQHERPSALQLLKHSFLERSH
The experimental procedure referred to the Z′-LYTE Screening Protocol and Assay Conditions provided by ThermoFisher Scientific.
C-1. Material Preparation
Peptide/Kinase Mixture was pre-diluted with Kinase Buffer to 2× working concentration.
ATP solution was pre-diluted with Kinase Buffer (50 mM HEPES pH 7.5, 0.01% BRIJ-35, 10 mM MgCl2, 1 mM EGTA) to 4× working concentration.
The development reagent solution is Novel PKC Lipid Mix, which contains 2 mg/mL Phosphatidyl Serine, 0.2 mg/mL DAG in 20 mM HEPES, pH 7.4 and 0.3% CHAPS, and was pre-diluted 10 fold with development buffer.
1. 100 nL of the above diluted test compound and 2.4 μL of kinase buffer were added to a black 384-well plate (Corning, Cat. NO. 4514), then add 5 μL of the peptide/kinase mixture mentioned above was added thereto, and after that 2.5 μL of ATP solution was added thereto, and the culture plate was shaken for 30 seconds.
2. Next, the culture plate was placed at room temperature and incubated for 60 minutes.
3. After that 5 μL of the development reagent solution was added and the culture plate was shaken for 30 seconds in the dark, and then the data was read and analyzed with a fluorescence plate reader.
In addition, for the kinase, the following control group was prepared and placed on the same culture plate as the kinase:
(1) 0% Phosphorylation Control (100% Inhibition Control)
This control yields 100% cleaved peptide in the Development Reaction.
(2) 100% Phosphorylation Control
A synthetically phosphorylated peptide of the same sequence as the peptide substrate is used as the 100% Phosphorylation Control.
The Phosphorylation percent achieved in a specific reaction well (Experimental group) was calculated based on the 0% Phosphorylation Control and 100% Phosphorylation Control.

Test [4] has as its system rabbit eyes with normal intraocular pressure. As to conditions: eye drop concentration.
Protocol: The maximal effect (Emax) dose evaluation of the intraocular pressure reduction model in normal rabbit
Animals: Male New Zealand white rabbits (n=7/each group);
Administration: 50 μL of the test compound was instilled in the right eye (dosed eye) and 50 μL of the vehicle (without the test compound) in the left eye (control eye) of each experimental animal. The 3 formulation mentioned above were administered once a day for 3 consecutive days.
The intraocular pressure of each animal was measured by Tono-Vet (iCare) before administration (0 hours) and 2, 4, 6 and 8 hours after administration on Day 1 and Day 3.
The maximum magnitude of the reduction in intraocular pressure %=(Intraocular pressure of the control eye−Intraocular pressure of the dosed eye)/Intraocular pressure of the control eye*100
The data presented in this experiment is the data that has removed the unqualified data (white rabbits with an intraocular pressure difference ≥2 mmHg (n=1) in the two eyes on Day 1 and >5 mmHg in the two eyes before the administration on the Day 3 (n=1) have been removed) and removed the rebound high intraocular pressure (n=3).
For test [5] the test system is unchanged. The test can be described thus: Evaluation of the effect of decreasing intraocular pressure in a model of rabbit with normal intraocular pressure. The conditions noted are these: for Intraocular pressure difference (mmHg): at time point of maximum effect. It counts as in vivo, New Zealand white rabbit. The method, then: Evaluation of the Effect of Decreasing Intraocular Pressure in a Model of Rabbit with Normal Intraocular Pressure
Experimental animal: New Zealand white rabbit, male, weighing more than 2 kg. New Zealand white rabbits were purchased from Huijun Farm (Changhua, Taiwan). After a one-week quarantine period, they were raised in MASTER LABORATORY Co., Ltd under the environmental conditions of 16-22° C., 30-70% relative humidity (RH), 8 hours day/16 hours night.
(1) Evaluation of the Effect of Reducing Intraocular Pressure
After weighing 12 New Zealand white rabbits (2.0-4.0 kg) and grouping them (n=3-6 in each group), the white rabbits were fixed with a wrap.

Chain of ROCK1 (Q13464 whole entry, species assumed): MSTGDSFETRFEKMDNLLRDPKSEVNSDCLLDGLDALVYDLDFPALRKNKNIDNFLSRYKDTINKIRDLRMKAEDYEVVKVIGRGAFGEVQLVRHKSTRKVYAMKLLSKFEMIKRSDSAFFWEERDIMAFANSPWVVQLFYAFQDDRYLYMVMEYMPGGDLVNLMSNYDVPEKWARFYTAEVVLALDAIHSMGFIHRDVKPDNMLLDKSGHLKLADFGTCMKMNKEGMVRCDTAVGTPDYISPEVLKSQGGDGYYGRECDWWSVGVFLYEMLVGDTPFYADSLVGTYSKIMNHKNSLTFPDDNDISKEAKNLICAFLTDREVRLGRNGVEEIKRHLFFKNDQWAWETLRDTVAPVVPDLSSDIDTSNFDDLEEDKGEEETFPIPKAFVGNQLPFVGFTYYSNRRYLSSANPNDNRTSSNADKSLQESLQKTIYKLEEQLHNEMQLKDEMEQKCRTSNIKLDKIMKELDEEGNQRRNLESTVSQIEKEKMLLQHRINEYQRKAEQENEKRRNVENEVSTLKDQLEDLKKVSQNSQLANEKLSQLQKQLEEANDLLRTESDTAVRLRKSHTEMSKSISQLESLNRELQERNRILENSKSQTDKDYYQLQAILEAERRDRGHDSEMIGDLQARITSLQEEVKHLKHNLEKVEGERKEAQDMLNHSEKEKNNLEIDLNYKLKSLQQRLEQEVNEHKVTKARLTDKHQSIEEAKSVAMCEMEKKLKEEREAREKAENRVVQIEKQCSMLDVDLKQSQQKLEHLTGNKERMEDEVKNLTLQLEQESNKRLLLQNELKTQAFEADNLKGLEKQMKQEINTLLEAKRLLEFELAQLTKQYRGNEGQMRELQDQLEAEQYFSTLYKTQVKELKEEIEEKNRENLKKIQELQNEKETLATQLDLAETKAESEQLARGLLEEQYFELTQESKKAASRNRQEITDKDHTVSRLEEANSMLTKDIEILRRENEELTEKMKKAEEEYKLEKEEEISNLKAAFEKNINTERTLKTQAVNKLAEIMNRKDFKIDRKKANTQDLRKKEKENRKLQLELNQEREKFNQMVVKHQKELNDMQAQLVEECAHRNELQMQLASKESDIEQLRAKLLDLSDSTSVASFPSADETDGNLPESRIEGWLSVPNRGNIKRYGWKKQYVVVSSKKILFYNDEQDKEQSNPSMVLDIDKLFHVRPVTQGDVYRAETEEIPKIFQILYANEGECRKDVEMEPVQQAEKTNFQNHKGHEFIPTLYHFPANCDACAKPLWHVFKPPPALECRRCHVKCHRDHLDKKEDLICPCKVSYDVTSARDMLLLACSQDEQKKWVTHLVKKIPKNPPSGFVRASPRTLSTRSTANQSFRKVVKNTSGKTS

For the compound `NC[C@@H](C(=O)Nc1ccc2cnccc2c1)c1ccc(CO)cc1` [AR-13503, reference compound], the pIC50 in test [1] was 6.00 to 7.00; in test [2] (read-out: ROCK1 IC50), greater than 9.00.

Consider `[N-]=[N+]=NC(CN)C(=O)Nc1ccc(-c2cn[nH]c2)cc1` (centres unmarked) [Compound 1, N-(4-(1H-pyrazol-4-yl)phenyl)-3-amino-2-azidopropanamide dihydrochloride], for which the pIC50 in test [1] was 6.00 to 7.00; in test [3], less than 5.00; in test [2], 6.00 to 7.00.

Take `NCC(C(=O)Nc1ccc(-c2cn[nH]c2)cc1)n1cc(-c2ccccc2)nn1` (centres unmarked) [Compound 2, dihydrochloride]: the pIC50 in test [1] is 6.00 to 7.00; in test [3] it was less than 5.00; in test [2], 7.00 to 8.00.

Compound `NCC(O)C(=O)Nc1ccc(-c2cn[nH]c2)cc1` (centres unmarked) [Compound 3, N-(4-(1H-pyrazol-4-yl)phenyl)-3-amino-2-hydroxypropanamide dihydrochloride] had a negative-log IC50 (pIC50) in test [2] of 6.00 to 7.00.

As to `NCC(Oc1ccccc1)C(=O)Nc1ccc(-c2cn[nH]c2)cc1` (centres unmarked) [Compound 4, N-(4-(1H-pyrazol-4-yl)phenyl)-3-amino-2-phenoxypropanamide dihydrochloride], in test [4], the “maximum effect (Emax) dose in the normal intraocular pressure rabbit model” value (“maximum effect (Emax) dose” below) was found to be 1%. In test [2], this compound showed a pIC50 of 8.00 to 9.00. In test [5] (dose 1%), the “time point at which maximum effect is achieved” value (shortened to “time point”) was found to be 2 h and the “Intraocular pressure difference (mmHg)” value is reported as 4.2 mmHg.

For `NCC(Oc1ccc(C(F)(F)F)cc1)C(=O)Nc1ccc(-c2cn[nH]c2)cc1` (centres unmarked) [Compound 5, N-(4-(1H-pyrazol-4-yl)phenyl)-3-amino-2-(4-(trifluoromethyl)phenoxy)propenamide dihydrochloride], the “maximum effect (Emax) dose” value in test [4] is on record as 1%. In test [1], this compound gave a negative logarithm of the IC50 (pIC50) of 6.00 to 7.00. Further, the pIC50 in test [2] was 8.00 to 9.00. Moreover, in test [5] (dose 1%), the “time point” value came out at 6 h and the “Intraocular pressure difference (mmHg)” value stood at 1.5 mmHg.

`NCC(OCc1ccccc1)C(=O)Nc1ccc(-c2cn[nH]c2)cc1` (centres unmarked) [Compound 6, N-(4-(1H-pyrazol-4-yl)phenyl)-3-amino-2-(benzyloxy) propanamidedihydrochloride]: the pIC50 in test [1] was 6.00 to 7.00; in test [3], less than 5.00; in test [2] it was 7.00 to 8.00.

`NCC(C(=O)Nc1ccc(-c2cn[nH]c2)cc1)c1ccc(F)cc1` (centres unmarked) [Compound 8, N-(4-(1H-pyrazol-4-yl)phenyl)-3-amino-2-(4-fluorophenyl) propanamide dihydrochloride]: the “maximum effect (Emax) dose” value in test [4] worked out at 1%. For the same compound, the pIC50 was 7.00 to 8.00 in test [1], less than 6.00 in test [3] and 8.00 to 9.00 in test [2]. Besides, the “time point” value in test [5] (dose 1%) was 6 h. The “Intraocular pressure difference (mmHg)” value in test [5] (dose 1%) was 5.2 mmHg.

Compound `NCC(C(=O)Nc1ccc(-c2cn[nH]c2)cc1)c1ccc(O)cc1` (centres unmarked) [Compound 9, N-(4-(1H-pyrazol-4-yl)phenyl)-3-amino-2-(4-hydroxyphenyl) propanamide dihydrochloride] had a negative logarithm of the IC50 (pIC50) in test [2] of 8.00 to 9.00.

On to `Cc1ccc(C(=O)Oc2ccc(C(CN)C(=O)Nc3ccc(-c4cn[nH]c4)cc3)cc2)c(C)c1` (centres unmarked) [Compound 10, 4-(1-((4-(1H-pyrazol-4-yl)phenyl)amino)-3-amino-1-oxopropan-2-yl)phenyl 2,4-dimethylbenzoate dihydrochloride], for which the pIC50 in test [1] was less than 6.00; in test [3], less than 5.00; in test [2] it was 6.00 to 7.00.

`NCC(C(=O)Nc1ccc(-c2cn[nH]c2)cc1)c1ccc(CO)cc1` (centres unmarked) [Compound 11, N-(4-(1H-pyrazol-4-yl)phenyl)-3-amino-2-(4-(hydroxymethyl)phenyl)propenamide dihydrochloride]: the “maximum effect (Emax) dose” value in test [4] came to 0.5%. Further, the negative-log IC50 (pIC50) was 6.00 to 7.00 in test [1] and 8.00 to 9.00 in test [2]. Moreover, the “time point” value in test [5] (dose 0.5%) came to 1 h. The “Intraocular pressure difference (mmHg)” value in test [5] (dose 0.5%) is 2.0 mmHg.

Take `Cc1ccc(C(=O)OCc2ccc(C(CN)C(=O)Nc3ccc(-c4cn[nH]c4)cc3)cc2)c(C)c1` (centres unmarked) [Compound 12, 4-(1-((4-(1H-pyrazol-4-yl)phenyl)amino)-3-amino-1-oxopropan-2-yl) benzyl 2,4-dimethylbenzoate dihydrochloride]: the “maximum effect (Emax) dose” value in test [4] is on record as 0.25%. Besides, the results for the pIC50 in test [1], in test [3] and in test [2] were 6.00 to 7.00, less than 6.00 and 7.00 to 8.00, respectively. Moreover, the “time point” value in test [5] (dose 0.25%) came to 6 h. Also, in test [5] (dose 0.25%), the “Intraocular pressure difference (mmHg)” value was 2.0 mmHg.

Regarding `NCC(C(=O)Nc1ccc(-c2cn[nH]c2)cc1)c1ccc(C=O)cc1` (centres unmarked) [Compound 13, N-(4-(1H-pyrazol-4-yl)phenyl)-3-amino-2-(4-formylphenyl)propanamide dihydrochloride], the results for the negative-log IC50 (pIC50) in test [1], in test [3] and in test [2] (read-out: ROCK1 IC50) were 6.00 to 7.00, less than 6.00 and greater than 9.00, respectively.

Turning to `NCC(C(=S)Nc1ccc(-c2cn[nH]c2)cc1)c1ccccc1` (centres unmarked) [Compound 14, N-(4-(1H-pyrazol-4-yl)phenyl)-3-amino-2-phenylpropanethioamide dihydrochloride], the “maximum effect (Emax) dose” value in test [4] came out at 0.5%. Further, the pIC50 in test [1] is 6.00 to 7.00; in test [3], less than 6.00; in test [2], 8.00 to 9.00. In addition, in test [5] (dose 0.5%), the “time point” value was 6 h. Further, in test [5] (dose 0.5%), the “Intraocular pressure difference (mmHg)” value is reported as 2.5 mmHg.

In the case of `NCC(NC(=S)Nc1ccc(-c2cn[nH]c2)cc1)c1ccccc1` (centres unmarked) [Compound 15, 1-(4-(1H-pyrazol-4-yl)phenyl)-3-(2-amino-1-phenylethyl)thiourea dihydrochloride], the results for the negative-log IC50 (pIC50) in test [1], in test [3] and in test [2] were 6.00 to 7.00, less than 5.00 and 6.00 to 7.00, respectively.

For the compound `N#C/N=C(/NCc1ccccc1)Nc1ccc(-c2cn[nH]c2)cc1` [Compound 16, 1-(4-(1H-pyrazol-4-yl)phenyl)-3-benzyl-2-cyanoguanidine hydrochloride], the pIC50 in test [1], in test [3] and in test [2] (read-out: ROCK1 IC50) was less than 5.00 throughout.

Consider `NCCN(Cc1ccc(F)cc1)C(=O)c1ccc(-c2cn[nH]c2)cc1` [Compound 17, N-(2-aminoethyl)-N-(4-fluorobenzyl)-4-(1H-pyrazol-4-yl)benzamide dihydrochloride], for which the negative-log IC50 (pIC50) was less than 5.00 in test [1], less than 5.00 in test [3] and 6.00 to 7.00 in test [2].

On to `NCC(C(=O)Nc1ccc(Oc2cn[nH]c2)cc1)c1ccccc1` (centres unmarked) [Compound 18, N-(4-((1H-pyrazol-4-yl)oxy)phenyl)-3-amino-2-phenylpropanamide dihydrochloride], for which, in test [2] (read-out: ROCK1 IC50), the pIC50 is less than 5.00.

Regarding `NCC(C(=O)Nc1ccc(-c2cn[nH]c2)cc1F)c1ccccc1` (centres unmarked) [Compound 19, 3-amino-N-(2-fluoro-4-(1H-pyrazol-4-yl)phenyl)-2-phenylpropanamide dihydrochloride], the pIC50 in test [1] was 6.00 to 7.00; in test [3], less than 6.00; in test [2], 7.00 to 8.00.

In the case of `NC[C@H](C(=O)Nc1ccc(-c2cn[nH]c2)cc1)c1ccccc1` [Compound 21, (R)—N-(4-(1H-pyrazol-4-yl)phenyl)-3-amino-2-phenylpropanamide dihydrochloride], in test [1], the pIC50 is 6.00 to 7.00. This compound also gave a pIC50 in test [2] of 6.00 to 7.00. Besides, in test [5] (dose 0.03%), the “time point” value came to 8 h and the “Intraocular pressure difference (mmHg)” value was 1.3 mmHg.

What is called pIC50 is the IC50 on a negative log10 scale, so that one unit is a factor of ten.
